{"source": "patent EP0624575A1", "about": "“Substituted indoles and pharmaceutical compositions containing them” (ADIR ET COMPAGNIE, priority 1993, dated 1994)", "key": {"[1]": {"system": "agrégation plaquettaire (plasma de lapin enrichi en plaquettes)", "assay": "Anti-aggregant activity: platelet aggregation induced by sodium arachidonate", "format": "cell-based", "conditions": "aggregation induced by arachidonate de sodium (50 µg/ml); rabbit platelet-rich plasma; read-out: concentration minimale active", "experimental": "Dans cette étude, les composés de l'invention (100 µg/ml) ont été testés dans le but de quantifier leur pouvoir d'inhibition du maximum non-réversible d'agrégation plaquettaire (plasma de lapin enrichi en plaquettes) induite par l'arachidonate de sodium (50 µg/ml). Ainsi, la concentration minimale active pour le composé de l'exemple 17 est de 30 µM."}, "granulocytes de lapins": {"system": "granulocytes de lapins", "assay": "Anti-inflammatory activity: leukotriene B4 release from A 23187-stimulated granulocytes (RIA)", "format": "cell-based", "conditions": "stimulation by calcium ionophore A 23187, mean of 3 independent measurements, versus control, read-out: pouvoir inhibiteur (leucotriènes B₄ libérés)", "from_the_text": "Les mesures sont réalisées sur granulocytes de lapins. Les granulocytes isolés sont stimulés in vitro par l'ionophore calcique (A 23187). Les leucotriènes B₄ libérés dans le milieu extracellulaire sont mesurés par Radio Immuno Assay (RIA). Les résultats (moyennes de 3 mesures indépendantes) sont exprimés en pourcentage d'inhibition par rapport au témoin."}, "[2]": {"system": "homogénats de cerveaux de rats", "assay": "Induced lipid peroxidation (Fe2+ - ascorbate) in rat brain homogenates (MDA)", "format": "biochemical", "conditions": "ratio versus probucol, induced peroxidation (Fe²⁺ - ascorbate)", "experimental": "L'action des composés utilisés selon l'invention, susceptibles de piéger les radicaux ·OH, a été étudiée d'une part, sur la peroxydation spontanée des lipides et d'autre part, sur la peroxydation induite par le système Fe²⁺ - ascorbate (10 µM - 250 µM), et ce, sur des homogénats de cerveaux de rats.\nLors de la mesure de la peroxydation lipidique spontanée, les homogénats de cerveau de rats sont placés en présence ou en absence des composés à tester durant 60 minutes à 37°C. La réaction est arrêtée à 0°C et le dosage du malondialdéhyde est effectué à l'aide d'acide thiobarbiturique. La peroxydation lipidique est déterminée par les substances réagissant avec l'acide thiobarbiturique exprimées en nanomoles de malondialdéhyde (MDA). Les concentrations des composés testés inhibant de 50 % la peroxydation du substrat sont calculées. Il est apparu que les composés de formule (I) utilisés selon l'invention possèdent une activité antiperoxydante particulièrement intense puisqu'ils possèdent une activité antiperoxydante nettement plus importante que le probucol et la vitamine E, qui est l'antioxydant naturel de l'organisme humain.\nLors de la mesure de la peroxydation lipidique induite, la méthodologie est identique à celle précédemment décrite à l'exception de l'addition à l'homogénat du système inducteur de radicaux : Fe²⁺ - ascorbate. […]"}, "LDL natives": {"system": "LDL natives", "assay": "Protection against LDL oxidation (Cu2+ system, 24 h incubation, FPLC analysis)", "format": "biochemical", "conditions": "10⁻⁵ M, 24 h incubation with native LDL and Cu²⁺ system, compared with probucol", "experimental": "La capacité des composés de l'invention à diminuer les proportions de LDL oxydées a été mesurée de la façon suivante : on réalise une incubation de 24 heures regroupant des LDL natives, un système Cu²⁺ générateur de radicaux libres et les composés à tester. Les résultats sont obtenus après analyse du milieu par une technique chromatographique haute performance : la FPLC (Fast Protein Liquid Chromatography). Le pouvoir protecteur du composé testé est déterminé après comparaison du chromatogramme obtenu avec celui du témoin positif de référence : le probucol. Il apparaît clairement que les composés de l'invention ont un pouvoir protecteur très important. A titre de comparaison, pour une concentration de 10⁻⁵ M, le niveau de protection obtenu pour les composés de l'invention dépasse celui du probucol."}}}
{"molecule": "CCCCN(C(=O)c1cc2cc(O)ccc2n1C)c1ccccc1", "note": "[exemple 17, N-(n-Butyl)-N-phényl-(5-hydroxy-1-méthylindol-2-yl)carboxamide]", "values": [{"measurement": "minimal effective concentration", "setting": "[1]", "result": 30, "unit": "µM"}, {"measurement": "inhibition at 10 µM", "setting": "granulocytes de lapins", "result": 51, "unit": "%"}, {"measurement": "Ratio probucol", "setting": "[2]", "result": 6}, {"measurement": "pouvoir protecteur vis-à-vis d'un système oxydant des LDL", "setting": "LDL natives", "result": "pratiquement total"}]}
